These results are taken from patent publication US20240376126A1, “PRMT5 INHIBITOR AND THE USE THEREOF” (CYTOSINLAB THERAPEUTICS CO., LTD., priority 2022, published 2024).

Assay [1] relates to HCT116-MTAP-KO (MTAP null) cells. Briefly: Proliferation inhibition of HCT116 MTAP-KO cells in vitro (CellTiter Glo, 6 days). The conditions noted are these: HCT116-MTAP null, 144 h, read-out: Cell proliferation inhibition rate HCT116-MTAP null IC50 (nm). Format: cell-based. For orientation: ATP-based viability assays read luminescence as a measure of living cells.
The subject of another assay is HCT116 MTAP WT cells. Briefly: Proliferation inhibition of HCT116 cells in vitro (CellTiter Glo, 6 days). In kind it is cell-based. As to conditions: Homo sapiens, HCT-116, 144 h, read-out: Cell proliferation inhibition rate HCT116 MTAP WT IC50 (nm).

In the case of `Cc1cn2c(n1)c(N)nc1cc(F)c(C(=O)N(Cc3cn4ccccc4n3)CC(C)C)cc12` [Example 158], the figures for the IC50 (in assay [1]; with HCT116 MTAP WT cells) were 100 to 1000 nM and 1000 to 10000 nM, respectively.

Turning to `CCN(Cc1cc2ccccn2n1)C(=O)c1ccc2nc(N)c3cnc(C)n3c2c1` [Example 159], the results for the IC50 (in assay [1]; in the assay on HCT116 MTAP WT cells) were 100 to 1000 nM and 1000 to 10000 nM, respectively.

Turning to `Cc1ncc2c(N)nc3ccc(C(=O)N(Cc4nc5cnccc5s4)CC(C)C)cc3n12` [Example 160], the results for the IC50 (in assay [1]; with HCT116 MTAP WT cells) were 100 to 1000 nM and 1000 to 10000 nM, respectively.

Regarding `Cc1nc(C)n2c1c(N)nc1cc(F)c(C(=O)N(Cc3cn4ccccc4n3)CC(C)C)cc12` [Example 162], the IC50 in assay [1] lay within 100 to 1000 nM; with HCT116 MTAP WT cells, 1000 to 10000 nM.

`CCN(C(=O)c1cc2c(cc1F)nc(N)c1cnc(C)n12)C(C)c1cn2ccccc2n1` (stereo not drawn) [Example 163]: the IC50 in assay [1] lay within 100 to 1000 nM; in the assay with HCT116 MTAP WT cells, 1000 to 10000 nM.

With `COCCN(Cc1cn2ccccc2n1)C(=O)c1cc2c(cc1C)nc(N)c1cnc(C)n12` [Example 166], the IC50 in assay [1] is < 100 nM; in the assay with HCT116 MTAP WT cells, 100 to 1000 nM.

With `Cc1nc(C)n2c1c(N)nc1ccc(C(=O)N(C)C3COc4cc(-c5cnn(C(F)(F)F)c5)ccc43)cc12` (stereo not drawn) [Example 167], the IC50 fell in the range of 100 to 1000 nM in assay [1] and 1000 to 10000 nM with HCT116 MTAP WT cells.

As to `Cc1cn2c(n1)c(N)nc1ccc(C(=O)N3C(C)COC[C@@H]3c3cn4ccccc4n3)cc12` (stereo partly drawn) [Example 168], the IC50 in assay [1] was in the range of 100 to 1000 nM; in the assay with HCT116 MTAP WT cells, 1000 to 10000 nM.

Regarding `Cc1ncc2c(N)nc3cc(F)c(C(=O)N(Cc4cn5ccccc5n4)C45CC(C4)C5)cc3n12` [Example 169], the IC50 in assay [1] is < 100 nM; with HCT116 MTAP WT cells, 100 to 1000 nM.

Take `Cc1cn2c(n1)c(N)nc1cc(F)c(C(=O)N3C(C)COC[C@@H]3c3cn4cc(C(F)(F)F)ccc4n3)cc12` (stereo partly drawn) [Example 170]: the IC50 is < 100 nM in assay [1] and 100 to 1000 nM with HCT116 MTAP WT cells.

On to `COCCN(C(=O)c1cc2c(cc1F)nc(N)c1cnc(C)n12)C(C)c1cn2ccccc2n1` (stereo not drawn) [Example 171], for which the IC50 in assay [1] is 100 to 1000 nM; in the assay with HCT116 MTAP WT cells it was 1000 to 10000 nM.

As to `Cc1ncc2c(N)nc3cc(F)c(C(=O)N4C(C)COC[C@@H]4c4cn5cc(C(F)(F)F)ccc5n4)cc3n12` (stereo partly drawn) [Example 172], the IC50 in assay [1] was < 100 nM; in the assay with HCT116 MTAP WT cells, 100 to 1000 nM.

For the molecule `[2H]C([2H])([2H])N(Cc1cn2cc(C(F)(F)F)ccc2n1)C(=O)c1cc2c(cc1F)nc(N)c1cnc(C)n12` [Example 173], the values for the IC50 (in assay [1]; in the assay with HCT116 MTAP WT cells) were 100 to 1000 nM and 1000 to 10000 nM, respectively.

Regarding `Cc1cn2c(n1)c(N)nc1cc(F)c(C(=O)N3C(C)COC[C@@H]3c3cn4ccccc4n3)cc12` (stereo partly drawn) [Example 174], the results for the IC50 (in assay [1]; in the assay on HCT116 MTAP WT cells) were 100 to 1000 nM and < 100 nM, respectively.

As for `Cc1ncc2c(N)nc3cc(F)c(C(=O)N4C(C)COC[C@@H]4c4cn5ccccc5n4)cc3n12` (stereo partly drawn) [Example 176], the IC50 in assay [1] is 100 to 1000 nM; in the assay with HCT116 MTAP WT cells it was 1000 to 10000 nM.

For the molecule `COC1CC(N(Cc2cn3ccccc3n2)C(=O)c2cc3c(cc2F)nc(N)c2cnc(C)n23)C1` (stereo not drawn) [Example 177], the IC50 in assay [1] fell in the range of 100 to 1000 nM; in the assay with HCT116 MTAP WT cells, 1000 to 10000 nM.

`CCN(Cc1cn2cc(C(F)(F)F)ccc2n1)C(=O)c1cc2c(cc1F)nc(N)c1cnc(C)n12` [Example 178]: the IC50 is 100 to 1000 nM in assay [1] and 1000 to 10000 nM in the assay with HCT116 MTAP WT cells.

As for `Cc1ncc2c(N)nc3cc(F)c(C(=O)N(Cc4cn5ccccc5n4)C4CCC4)cc3n12` [Example 179], the IC50 in assay [1] is < 100 nM; in the assay on HCT116 MTAP WT cells, 1000 to 10000 nM.

In the case of `Cc1ncc2c(N)nc3cc(F)c(C(=O)N(Cc4cn5ccccc5n4)CC(F)(F)F)cc3n12` [Example 180], the values for the IC50 (in assay [1]; in the assay on HCT116 MTAP WT cells) were 100 to 1000 nM and 1000 to 10000 nM, respectively.

`Cc1ncc2c(N)nc3cc(F)c(C(=O)N(Cc4cn5ccccc5n4)c4cnn(C)c4)cc3n12` [Example 181]: the IC50 in assay [1] fell in the range of 100 to 1000 nM; in the assay on HCT116 MTAP WT cells, 1000 to 10000 nM.

On to `Cc1ncc2c(N)nc3cc(F)c(C(=O)N(Cc4cn5cc(C(F)(F)C(F)(F)F)ccc5n4)CC(C)C)cc3n12` [Example 182], for which the IC50 in assay [1] was < 100 nM; in the assay on HCT116 MTAP WT cells, 100 to 1000 nM.

With `Cc1ncc2c(N)nc3cc(F)c(C(=O)N(Cc4cn5cc(C(F)(F)F)ccc5n4)c4cnn(C)c4)cc3n12` [Example 183], the IC50 in assay [1] was < 100 nM; in the assay with HCT116 MTAP WT cells, 1000 to 10000 nM.

Turning to `CCN(Cc1cn2ccccc2n1)C(=O)c1cc2c(cc1F)nc(N)c1cnc(C)n12` [Example 184], the IC50 in assay [1] is 100 to 1000 nM; in the assay with HCT116 MTAP WT cells, 1000 to 10000 nM.

Regarding `COC1CCCC1N(Cc1cn2ccccc2n1)C(=O)c1cc2c(cc1F)nc(N)c1cnc(C)n12` (stereo not drawn) [Example 185], the IC50 in assay [1] is < 100 nM; in the assay on HCT116 MTAP WT cells, 1000 to 10000 nM.

In the case of `Cc1cn2c(n1)c(N)nc1cc(F)c(C(=O)N(Cc3nc4ccccn4c3F)CC(C)C)cc12` [Example 188], the IC50 in assay [1] is < 100 nM; with HCT116 MTAP WT cells, 1000 to 10000 nM.

For the molecule `Cc1ncc2c(N)nc3cc(F)c(C(=O)N(Cc4cn5ccccc5n4)C4CCCC4O)cc3n12` (stereo not drawn) [Example 190], the IC50 in assay [1] lay in the range of 100 to 1000 nM; in the assay on HCT116 MTAP WT cells, 1000 to 10000 nM.

In the case of `CCN(Cc1cn2ccccc2n1)C(=O)c1cc2c(cc1Cl)nc(N)c1cnc(C)n12` [Example 192], the IC50 lay in the range of 100 to 1000 nM in assay [1] and 1000 to 10000 nM in the assay on HCT116 MTAP WT cells.

In the case of `Cc1ncc2c(N)nc3cc(F)c(C(=O)N(Cc4nc5ccccn5c4F)CC(C)C)cc3n12` [Example 194], the IC50 is < 100 nM in assay [1] and 1000 to 10000 nM in the assay on HCT116 MTAP WT cells.

As for `Cc1ncc2c(N)nc3cc(F)c(C(=O)N(Cc4cn5cccc(C(F)(F)F)c5n4)c4cnn(C)c4)cc3n12` [Example 195], the IC50 in assay [1] was 100 to 1000 nM; in the assay on HCT116 MTAP WT cells, 1000 to 10000 nM.

Take `Cc1ncc2c(N)nc3cc(F)c(C(=O)N(Cc4cn5ccccc5n4)c4cccnc4)cc3n12` [Example 199]: the values for the IC50 (in assay [1]; with HCT116 MTAP WT cells) were 100 to 1000 nM and 1000 to 10000 nM, respectively.

For `Cc1ncc2c(N)nc3cc(F)c(C(=O)N4C(c5cc6ccccn6n5)COC[C@H]4C)cc3n12` (stereo partly drawn) [Example 203], the figures for the IC50 (in assay [1]; in the assay with HCT116 MTAP WT cells) were < 100 nM and 1000 to 10000 nM, respectively.

For the molecule `Cc1ncn2c1c(N)nc1cc(F)c(C(=O)N(Cc3nc4ccccn4c3F)c3cnn(C)c3)cc12` [Example 205], the IC50 was < 100 nM in assay [1] and 1000 to 10000 nM in the assay on HCT116 MTAP WT cells.

Regarding `CCN(Cc1cn2cc(C(F)(F)F)ncc2n1)C(=O)c1cc2c(cc1F)nc(N)c1c(C)ncn12` [Example 207], the IC50 in assay [1] was < 100 nM; in the assay on HCT116 MTAP WT cells it was 1000 to 10000 nM.

For `CCN(Cc1nc2ccccn2c1F)C(=O)c1cc2c(cc1F)nc(N)c1c(C)ncn12` [Example 209], the IC50 is < 100 nM in assay [1] and 1000 to 10000 nM with HCT116 MTAP WT cells.

`Cc1ncc2c(N)nc3cc(Cl)c(C(=O)N(Cc4cn5cc(C(F)(F)F)ccc5n4)c4cnn(C)c4)cc3n12` [Example 210]: the IC50 in assay [1] fell in the range of 100 to 1000 nM; with HCT116 MTAP WT cells, 1000 to 10000 nM.

For `Cc1ncc2c(N)nc3cc(F)c(C(=O)N(Cc4cc5c(cn4)COC5)c4cnn(C)c4)cc3n12` [Example 211], the IC50 in assay [1] was in the range of 100 to 1000 nM; in the assay with HCT116 MTAP WT cells it was 1000 to 10000 nM.

For `CCN(Cc1cn2nc(C(F)(F)F)ccc2n1)C(=O)c1cc2c(cc1F)nc(N)c1c(C)ncn12` [Example 213], the IC50 in assay [1] was 100 to 1000 nM; with HCT116 MTAP WT cells, 1000 to 10000 nM.

In the case of `CCN(Cc1cc2c(cn1)OCC2)C(=O)c1cc2c(cc1F)nc(N)c1cnc(C)n12` [Example 214], the IC50 was in the range of 100 to 1000 nM in assay [1] and 1000 to 10000 nM with HCT116 MTAP WT cells.

`CCN(C(=O)c1cc2c(cc1F)nc(N)c1c(C)ncn12)C1COc2cc(C(F)(F)F)ccc21` (stereo not drawn) [Example 215]: the values for the IC50 (in assay [1]; in the assay on HCT116 MTAP WT cells) were < 100 nM and 1000 to 10000 nM, respectively.
